According to ChEMBL document CHEMBL4387740, “Discovery of ABT-957: 1-Benzyl-5-oxopyrrolidine-2-carboxamides as selective calpain inhibitors with enhanced metabolic stability” (Bioorg Med Chem Lett, 2019):
Calls of active or inactive are those of the source. The calls are words filed in the database; no cut-off is given here.

What was measured:
[1] = Selectivity ratio, ratio of Ki for CatS (unknown origin) to Ki for Cal1 (unknown origin); details: Homo sapiens
[2] = Intrinsic clearance in cynomolgus monkey liver cytosol; format: ADME, subcellular, Macaca fascicularis; details: read-out: CLH
[3] = molecular target: T1, Calpain-1 catalytic subunit (Homo sapiens, UniProt P07384); assay: Inhibition of Cal1 (unknown origin)
T1 sequence (P07384 whole entry): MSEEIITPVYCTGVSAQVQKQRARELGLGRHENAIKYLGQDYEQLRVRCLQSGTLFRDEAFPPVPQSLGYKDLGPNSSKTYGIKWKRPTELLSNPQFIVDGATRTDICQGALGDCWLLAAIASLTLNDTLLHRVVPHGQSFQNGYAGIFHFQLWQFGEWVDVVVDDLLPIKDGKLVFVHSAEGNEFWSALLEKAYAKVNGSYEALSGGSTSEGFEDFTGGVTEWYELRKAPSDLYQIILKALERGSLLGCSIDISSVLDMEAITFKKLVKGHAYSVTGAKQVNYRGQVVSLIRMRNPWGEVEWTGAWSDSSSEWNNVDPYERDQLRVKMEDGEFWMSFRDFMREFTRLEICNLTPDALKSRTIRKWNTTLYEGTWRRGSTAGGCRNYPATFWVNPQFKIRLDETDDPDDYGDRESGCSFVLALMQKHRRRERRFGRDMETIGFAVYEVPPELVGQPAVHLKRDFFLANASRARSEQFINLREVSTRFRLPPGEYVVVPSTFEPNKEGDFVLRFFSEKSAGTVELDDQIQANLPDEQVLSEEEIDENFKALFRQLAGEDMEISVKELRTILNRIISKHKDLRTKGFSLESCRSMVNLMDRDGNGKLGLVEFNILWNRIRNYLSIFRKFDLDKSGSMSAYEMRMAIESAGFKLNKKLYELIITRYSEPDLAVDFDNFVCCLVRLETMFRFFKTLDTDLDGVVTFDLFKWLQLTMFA

[4] = organism: Homo sapiens; assay: Selectivity ratio, ratio of Ki for CatL (unknown origin) to Ki for Cal1 (unknown origin)
[5] = Intrinsic clearance in human liver microsomes; format: ADME, Microsome; details: read-out: CLH
[6] = Intrinsic clearance in human liver cytosol; format: ADME, subcellular; details: read-out: CLH
[7] = organism: Homo sapiens; assay: Selectivity ratio, ratio of Ki for CatK (unknown origin) to Ki for Cal1 (unknown origin)
[8] = organism: Homo sapiens; assay: Selectivity ratio, ratio of Ki for CatB (unknown origin) to Ki for Cal1 (unknown origin)
[9] = Oral bioavailability in rat; format: ADME, organism-based; details: in vivo
[10] = Intrinsic clearance in rat liver microsomes; format: ADME, Microsome; details: read-out: CLH
[11] = Metabolic stability in dog liver microsomes; format: ADME, Canis lupus familiaris, Microsome
[12] = Metabolic stability in human liver cytosol assessed as hydroxyamide metabolite formation; format: ADME, subcellular
[13] = AUC (0 to infinity) in Sprague-Dawley rat at 2 mg/kg, po; format: ADME, organism-based; parameters: dose 2 mg/kg, time infinity, route oral; details: in vivo
[14] = system: Hippocampus; assay: Inhibition of NMDA-induced spectrin degradation in rat hippocampal slices; format: functional, tissue-based
[15] = Volume of distribution at steady state in Sprague-Dawley rat at 2 mg/kg, iv; format: ADME, organism-based; details: in vivo, read-out: Vdss
[16] = Plasma clearance in Beagle dog at 1 mg/kg, iv; format: ADME, organism-based, Canis lupus familiaris
[17] = Metabolic stability in dog hepatocytes; format: ADME, cell-based, Canis lupus familiaris, Hepatocyte
[18] = Elimination half life in CD-1 mouse at 2 mg/kg, iv; format: ADME, organism-based; details: in vivo, read-out: beta t1/2 (converted)
[19] = AUC (0 to infinity) in Beagle dog at 1 mg/kg, iv; format: ADME, organism-based, Canis lupus familiaris; parameters: dose 1 mg/kg, time infinity, route intravenous; details: in vivo
[20] = AUC (0 to infinity) in CD-1 mouse at 2 mg/kg, po; format: ADME, organism-based; parameters: dose 2 mg/kg, route oral, time infinity; details: in vivo
[21] = Metabolic stability in human liver microsomes; format: ADME, Microsome
[22] = Fraction unbound in human plasma; format: ADME, cell-free
[23] = Elimination half life in Sprague-Dawley rat at 2 mg/kg, iv; format: ADME, organism-based; details: in vivo, read-out: beta t1/2 (converted)
[24] = Elimination half life in Beagle dog at 1 mg/kg, po; format: ADME, organism-based, Canis lupus familiaris; details: in vivo, read-out: beta t1/2 (converted)
[25] = Intrinsic clearance in rat liver microsomes; details: read-out: CLH
[26] = Oral bioavailability in Beagle dog at 1 mg/kg; format: ADME, organism-based, Canis lupus familiaris; details: in vivo
[27] = Plasma clearance in CD-1 mouse at 2 mg/kg, iv; format: ADME, organism-based
[28] = Cmax in Beagle dog at 1 mg/kg, po; format: ADME, organism-based, Canis lupus familiaris; parameters: dose 1 mg/kg, route oral; details: in vivo
[29] = Plasma clearance in cynomolgus monkey at 1 mg/kg, iv; format: ADME, organism-based, Macaca fascicularis
[30] = Metabolic stability in cynomolgus monkey liver cytosol assessed as hydroxyamide metabolite formation; format: ADME, subcellular, Macaca fascicularis
[31] = Metabolic stability in rat hepatocytes; format: ADME, cell-based, Hepatocyte
[32] = AUC (0 to infinity) in cynomolgus monkey at 3 mg/kg, po; format: ADME, organism-based, Macaca fascicularis; parameters: dose 3 mg/kg, time infinity, route oral; details: in vivo
[33] = Elimination half life in Beagle dog at 1 mg/kg, iv; format: ADME, organism-based, Canis lupus familiaris; details: in vivo, read-out: beta t1/2 (converted)
[34] = AUC (0 to infinity) in Beagle dog at 1 mg/kg, po; format: ADME, organism-based, Canis lupus familiaris; parameters: dose 1 mg/kg, time infinity, route oral; details: in vivo
[35] = Oral bioavailability in Sprague-Dawley rat at 2 mg/kg; format: ADME, organism-based; details: in vivo
[36] = Elimination half life in CD-1 mouse at 2 mg/kg, po; format: ADME, organism-based; details: in vivo, read-out: beta t1/2 (converted)
[37] = Elimination half life in Sprague-Dawley rat at 2 mg/kg, po; format: ADME, organism-based; details: in vivo, read-out: beta t1/2 (converted)
[38] = AUC (0 to infinity) in CD-1 mouse at 2 mg/kg, iv; format: ADME, organism-based; parameters: dose 2 mg/kg, route intravenous, time infinity; details: in vivo
[39] = Cmax in Sprague-Dawley rat at 2 mg/kg, po; format: ADME, organism-based; parameters: dose 2 mg/kg, route oral; details: in vivo
[40] = Metabolic stability in cynomolgus monkey liver microsomes; format: ADME, Macaca fascicularis, Microsome
[41] = system: Hippocampus; assay: Inhibition of amyloid beta oligomer-induced reduction of synaptic transmission in rat hippocampal slices assessed as increase in glutamatergic synaptic strength at 100 nM; format: functional, tissue-based
[42] = Oral bioavailability in cynomolgus monkey at 3 mg/kg; format: ADME, organism-based, Macaca fascicularis; details: in vivo
[43] = Cmax in CD-1 mouse at 2 mg/kg, po; format: ADME, organism-based; parameters: dose 2 mg/kg, route oral; details: in vivo
[44] = molecular target: T2, BCRP (ABCG2) (Homo sapiens, UniProt Q9UNQ0); assay: Substrate activity at BCRP (unknown origin) expressed in MDCK2 cells assessed as efflux ratio of permeability across basolateral to apical over apical to basolateral side; format: ADME, cell-based
T2 sequence (Q9UNQ0 whole entry): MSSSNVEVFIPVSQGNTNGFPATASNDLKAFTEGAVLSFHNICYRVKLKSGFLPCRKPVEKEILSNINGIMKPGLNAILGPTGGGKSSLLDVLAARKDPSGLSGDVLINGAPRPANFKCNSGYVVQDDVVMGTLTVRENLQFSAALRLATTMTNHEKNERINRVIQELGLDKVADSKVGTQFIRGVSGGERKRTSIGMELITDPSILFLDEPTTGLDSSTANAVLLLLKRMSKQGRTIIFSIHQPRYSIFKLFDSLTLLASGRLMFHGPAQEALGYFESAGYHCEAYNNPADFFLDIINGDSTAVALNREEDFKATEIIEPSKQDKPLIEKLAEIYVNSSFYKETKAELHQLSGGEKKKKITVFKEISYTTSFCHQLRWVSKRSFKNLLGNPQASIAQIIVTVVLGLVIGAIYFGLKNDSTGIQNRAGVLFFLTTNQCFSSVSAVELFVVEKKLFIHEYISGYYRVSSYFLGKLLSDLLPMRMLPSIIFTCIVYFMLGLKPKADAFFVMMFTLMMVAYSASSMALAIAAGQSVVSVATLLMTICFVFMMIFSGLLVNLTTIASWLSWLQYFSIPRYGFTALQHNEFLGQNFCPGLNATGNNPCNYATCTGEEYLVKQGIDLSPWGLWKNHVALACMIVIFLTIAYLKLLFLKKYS

[45] = Elimination half life in cynomolgus monkey at 3 mg/kg, po; format: ADME, organism-based, Macaca fascicularis; details: in vivo, read-out: beta t1/2 (converted)
[46] = Metabolic stability in rat liver microsomes; format: ADME, Microsome
[47] = Cmax in cynomolgus monkey at 3 mg/kg, po; format: ADME, organism-based, Macaca fascicularis; parameters: dose 3 mg/kg, route oral; details: in vivo
[48] = Plasma clearance in Sprague-Dawley rat at 2 mg/kg, iv; format: ADME, organism-based
[49] = Apparent permeability in human Caco2 cells; format: ADME, cell-based; details: Caco-2, read-out: permeability
[50] = Oral bioavailability in CD-1 mouse at 2 mg/kg; format: ADME, organism-based; details: in vivo
[51] = AUC (0 to infinity) in Sprague-Dawley rat at 2 mg/kg, iv; format: ADME, organism-based; parameters: dose 2 mg/kg, time infinity, route intravenous; details: in vivo
[52] = AUC (0 to infinity) in cynomolgus monkey at 1 mg/kg, iv; format: ADME, organism-based, Macaca fascicularis; parameters: dose 1 mg/kg, time infinity, route intravenous; details: in vivo
[53] = molecular target: P-gp (ABCB1) (Homo sapiens, UniProt P08183); assay: Substrate activity at P-gp (unknown origin) expressed in MDCK2 cells assessed as efflux ratio of permeability across basolateral to apical over apical to basolateral side; format: ADME, cell-based; details: MDCK-MDR1
[54] = Elimination half life in cynomolgus monkey at 1 mg/kg, iv; format: ADME, organism-based, Macaca fascicularis; details: in vivo, read-out: beta t1/2 (converted)
[55] = Metabolic stability in cynomolgus monkey hepatocytes; format: ADME, cell-based, Macaca fascicularis, Hepatocyte
[56] = Volume of distribution at steady state in CD-1 mouse at 2 mg/kg, iv; format: ADME, organism-based; details: in vivo, read-out: Vdss
[57] = Metabolic stability in human hepatocytes; format: ADME, cell-based, Hepatocyte
[58] = Volume of distribution at steady state in cynomolgus monkey at 1 mg/kg, iv; format: ADME, organism-based, Macaca fascicularis; details: in vivo, read-out: Vdss
[59] = Volume of distribution at steady state in Beagle dog at 1 mg/kg, iv; format: ADME, organism-based, Canis lupus familiaris; details: in vivo, read-out: Vdss

Chain of P-gp (ABCB1) (P08183 whole entry): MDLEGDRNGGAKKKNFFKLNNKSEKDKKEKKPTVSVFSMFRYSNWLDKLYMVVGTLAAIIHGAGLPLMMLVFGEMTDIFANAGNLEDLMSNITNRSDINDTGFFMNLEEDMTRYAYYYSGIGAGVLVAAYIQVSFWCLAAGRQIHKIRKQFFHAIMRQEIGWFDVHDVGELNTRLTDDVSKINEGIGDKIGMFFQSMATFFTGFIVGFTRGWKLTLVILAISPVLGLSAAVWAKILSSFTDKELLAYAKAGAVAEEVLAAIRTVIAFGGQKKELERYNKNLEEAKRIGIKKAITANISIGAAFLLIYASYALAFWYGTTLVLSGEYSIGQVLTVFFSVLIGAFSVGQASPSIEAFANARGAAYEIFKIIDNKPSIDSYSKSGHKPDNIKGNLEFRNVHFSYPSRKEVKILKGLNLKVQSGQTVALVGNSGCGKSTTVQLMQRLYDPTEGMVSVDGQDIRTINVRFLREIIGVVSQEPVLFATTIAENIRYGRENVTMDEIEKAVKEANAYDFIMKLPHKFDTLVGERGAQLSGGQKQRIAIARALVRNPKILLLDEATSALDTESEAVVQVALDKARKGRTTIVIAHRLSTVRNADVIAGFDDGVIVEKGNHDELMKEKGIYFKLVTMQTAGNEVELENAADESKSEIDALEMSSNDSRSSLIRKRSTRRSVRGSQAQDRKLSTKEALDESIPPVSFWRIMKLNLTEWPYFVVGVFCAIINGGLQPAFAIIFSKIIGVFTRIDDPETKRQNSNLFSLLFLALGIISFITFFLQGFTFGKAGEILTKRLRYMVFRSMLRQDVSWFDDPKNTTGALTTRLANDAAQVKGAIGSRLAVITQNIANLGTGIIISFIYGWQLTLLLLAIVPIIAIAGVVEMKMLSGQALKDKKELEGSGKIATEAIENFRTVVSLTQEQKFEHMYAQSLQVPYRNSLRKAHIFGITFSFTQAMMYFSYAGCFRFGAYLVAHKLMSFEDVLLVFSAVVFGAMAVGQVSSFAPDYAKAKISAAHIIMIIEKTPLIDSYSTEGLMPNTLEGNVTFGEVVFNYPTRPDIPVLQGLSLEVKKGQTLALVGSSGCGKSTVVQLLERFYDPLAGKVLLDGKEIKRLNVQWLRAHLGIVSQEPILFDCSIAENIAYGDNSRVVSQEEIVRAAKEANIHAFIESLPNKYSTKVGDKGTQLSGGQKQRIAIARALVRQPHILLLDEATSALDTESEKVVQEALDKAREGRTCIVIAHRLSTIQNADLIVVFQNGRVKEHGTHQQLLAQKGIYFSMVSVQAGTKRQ

`NC(=O)C(=O)C(Cc1ccccc1)NC(=O)[C@H]1CCC(=O)N1Cc1ccccc1` (mixture of isomers) showed a Selectivity ratio [1] of 103, a microsomal CLint [2] of 185 µL/min/mg and a Ki [3] of 39 nM. For the same molecule, the Selectivity ratio [4] was 15, the microsomal CLint [5] was 27 µL/min/mg and the microsomal CLint [6] was greater than 70 µL/min/mg. The Selectivity ratio [7] was 22, the Selectivity ratio [8] was 23 and the bioavailability [9] was 45%. The microsomal CLint [10] was less than 23 µL/min/mg.

With `O=C(NC1CC1)C(=O)C(Cc1ccccc1)NC(=O)[C@H]1CCC(=O)N1Cc1ccccc1` (some centres not stated) the Stability [11] was “Stable”, the Stability [12] was “Stable” and the Selectivity ratio [1] was greater than 100. The AUC(0-inf) [13] was 1910 ng·h/mL, the IC50 [14] was 385 nM and the Vd [15] was 3.4 L/kg. For the same molecule, the clearance [16] was 10.2 mL/min/kg, the Stability [17] was “Stable” and the half-life [18] was 6 h. The AUC(0-inf) [19] was 1820 ng·h/mL, the AUC(0-inf) [20] was 14500 ng·h/mL and the Stability [21] was “Stable”. It also gave a fraction unbound [22] of 0.3, a half-life [23] of 6.6 h and a half-life [24] of 4.8 h. It also gave a microsomal CLint [25] of less than 23 µL/min/mg, a Ki [3] of 130 nM and a bioavailability [26] of 83.1%. It also gave a clearance [27] of 2.17 mL/min/kg, a Selectivity ratio [4] of 42 and a Cmax [28] of 980 ng/mL. For the same molecule, the clearance [29] was 33 mL/min/kg, the Stability [30] was “Stable” and the Stability [31] was “Stable”. It also gave an AUC(0-inf) [32] of 220 ng·h/mL, a half-life [33] of 1.7 h and an AUC(0-inf) [34] of 1510 ng·h/mL. The bioavailability [35] was 99.6%, the microsomal CLint [5] was 28 µL/min/mg and the half-life [36] was 5 h. For the same molecule, the half-life [37] was 5.1 h, the AUC(0-inf) [38] was 15400 ng·h/mL and the microsomal CLint [6] was less than 1 µL/min/mg. It also gave a Selectivity ratio [7] of 74, a Cmax [39] of 530 ng/mL and a Selectivity ratio [8] of 42. The Stability [40] was “Stable”, the inhibition [41] was “Active” and the bioavailability [42] was 14.3%. It also gave a Cmax [43] of 2300 ng/mL, an efflux ratio [44] of 0.9 and a half-life [45] of 1.3 h. For the same molecule, the Stability [46] was “Stable”, the Cmax [47] was 98 ng/mL and the clearance [48] was 17.3 mL/min/kg. For the same molecule, the Papp [49] was 9.4 ×10⁻⁶ cm/s, the bioavailability [50] was 93.5% and the AUC(0-inf) [51] was 1930 ng·h/mL. For the same molecule, the AUC(0-inf) [52] was 510 ng·h/mL, the efflux ratio [53] was 10.5 and the half-life [54] was 2.3 h. For the same molecule, the microsomal CLint [10] was less than 23 µL/min/mg, the Stability [55] was “Stable” and the Vd [56] was 1 L/kg. For the same molecule, the Stability [57] was “Stable”, the Vd [58] was 1.8 L/kg and the Vd [59] was 0.6 L/kg.
